From US10004701B2, “Methods and compositions for treating infection” (UNIVERSITY OF ROCHESTER, priority 2012, dated 2018) come the findings set out here.

Counter-ions that a name gives are not always drawn. Like-named read-outs stand apart in the source and are kept apart here.

What all share (assay): AK assay 384-well format, Prestwick library screening
In assay [1] the test system is E. faecium. In kind it is cell-based, Enterococcus faecium. As to conditions: 50 μM final drug concentration; for fold induction at 50 µM: Enterococcus faecium, 3 h.
The test system of assay [2] is S. aureus strain USA300-0114. In kind it is cell-based, Staphylococcus aureus. As to conditions: 50 μM final drug concentration; for fold induction at 50 µM: Staphylococcus aureus, USA300, 3 h.
The test system of assay [3] is K. pneumoniae. The class given is cell-based, Klebsiella pneumoniae. As to conditions: 50 μM final drug concentration; for fold induction at 50 µM: Klebsiella pneumoniae, 3 h.
Assay [4] relates to A. baumannii strain 98-37-09. In kind it is cell-based, Acinetobacter baumannii. As to conditions: 50 μM final drug concentration; for fold induction at 50 µM: Acinetobacter baumannii, 983709, 3 h.
The subject of assay [5] is P. aeruginosa. In kind it is cell-based, Pseudomonas aeruginosa. As to conditions: 50 μM final drug concentration; for fold induction at 50 µM: Pseudomonas aeruginosa, 3 h.
The subject of assay [6] is E. cloacae. In kind it is cell-based, Enterobacter cloacae. The settings on record: 50 μM final drug concentration; for fold induction at 50 µM: Enterobacter cloacae, 3 h.
In assay [7] the test system is E. coli. In kind it is cell-based, Escherichia coli. The settings on record: 50 μM final drug concentration; for fold induction at 50 µM: Escherichia coli, 3 h.
Where [8] appears, read: planktonic, cutoff for positive 3-fold increase.
The mark [9] stands for this setting: planktonic E. faecium, cutoff for positive-scoring molecules 3-fold increase, read-out: AK-based Prestwick Library Screening Results, E. faecium (increase in extracellular AK activity).
Where [10] appears, read: planktonic S. aureus, cutoff for positive-scoring molecules 3-fold increase, read-out: AK-based Prestwick Library Screening Results, S. aureus (increase in extracellular AK activity).
The mark [11] stands for this setting: planktonic K. pneumoniae, cutoff for positive-scoring molecules 3-fold increase, read-out: AK-based Prestwick Library Screening Results, K. pneumoniae (increase in extracellular AK activity).
Setting [12] is: planktonic A. baumannii, cutoff for positive-scoring molecules 3-fold increase, read-out: AK-based Prestwick Library Screening Results, A. baumannii (increase in extracellular AK activity).
Where [13] appears, read: planktonic P. aeruginosa, cutoff for positive-scoring molecules 3-fold increase, read-out: AK-based Prestwick Library Screening Results, P. aeruginosa (increase in extracellular AK activity).
The mark [14] stands for this setting: planktonic E. cloacae, cutoff for positive-scoring molecules 3-fold increase, read-out: AK-based Prestwick Library Screening Results, E. cloacae (increase in extracellular AK activity).
The mark [15] stands for this setting: planktonic E. coli, cutoff for positive-scoring molecules 3-fold increase, read-out: AK-based Prestwick Library Screening Results, E. coli (increase in extracellular AK activity).
Setting [16] is: cutoff for positive-scoring molecules 3-fold increase.

Regarding `O=C(NCC1CCCCN1)c1cc(OCC(F)(F)F)ccc1OCC(F)(F)F` (centres unmarked) [Flecainide acetate], the fold induction at 50 µM was determined as 0.9 in assay [1] (planktonic, cutoff for positive-scoring molecules 3-fold increase, read-out: AK-based Prestwick Library Screening Results, E. faecium (fold increase in extracellular AK activity)); 0.7 in assay [2] (planktonic, cutoff for positive-scoring molecules 3-fold increase, read-out: AK-based Prestwick Library Screening Results, S. aureus (fold increase in extracellular AK activity)); 0.6 in assay [3] (planktonic, cutoff for positive-scoring molecules 3-fold increase, read-out: AK-based Prestwick Library Screening Results, K. pneumoniae (fold increase in extracellular AK activity)); 0.8 in assay [4] (planktonic, cutoff for positive-scoring molecules 3-fold increase, read-out: AK-based Prestwick Library Screening Results, A. baumannii (fold increase in extracellular AK activity)); 0.6 in assay [5] (planktonic, cutoff for positive-scoring molecules 3-fold increase, read-out: AK-based Prestwick Library Screening Results, P. aeruginosa (fold increase in extracellular AK activity)); 0.7 in assay [6] (planktonic, cutoff for positive-scoring molecules 3-fold increase, read-out: AK-based Prestwick Library Screening Results, E. cloacae (fold increase in extracellular AK activity)). The fold induction at 50 µM in assay [7] (planktonic, cutoff for positive-scoring molecules 3-fold increase, read-out: AK-based Prestwick Library Screening Results, E. coli (fold increase in extracellular AK activity)) amounted to 0.6.

As for `CS(=N)(=O)CC[C@H](N)C(=O)O` (some centres unmarked) [Methionine sulfoximine (L)], the “AK-based Prestwick Library Screening Results, E. faecium (fold increase in extracellular AK activity)” value in assay [1] (setting [8]) is on record as 1.0. Further, the “AK-based Prestwick Library Screening Results, S. aureus (fold increase in extracellular AK activity)” value in assay [2] (setting [8]) was 1.1. The “AK-based Prestwick Library Screening Results, K. pneumoniae (fold increase in extracellular AK activity)” value in assay [3] (setting [8]) was 0.9. Further, the “AK-based Prestwick Library Screening Results, A. baumannii (fold increase in extracellular AK activity)” value in assay [4] (setting [8]) was found to be 1.0. In addition, the “AK-based Prestwick Library Screening Results, P. aeruginosa (fold increase in extracellular AK activity)” value in assay [5] (setting [8]) amounted to 1.2. Also, in assay [6] (setting [8]), the “AK-based Prestwick Library Screening Results, E. cloacae (fold increase in extracellular AK activity)” value came out at 1.5. Further, in assay [7] (setting [8]), the “AK-based Prestwick Library Screening Results, E. coli (fold increase in extracellular AK activity)” value worked out at 1.3.

As to `CCCN(CCC)C(=O)C(CCC(=O)O)NC(=O)c1ccccc1` (centres unmarked) [Proglumide], the fold induction at 50 µM in assay [1] (planktonic E. faecium, 384-well, cutoff for positive-scoring molecules 3-fold increase, read-out: AK-based Prestwick Library Screening Results: E. faecium (increase in extracellular AK activity)) was found to be 1; in assay [2] (planktonic S. aureus, 384-well, cutoff for positive-scoring molecules 3-fold increase, read-out: AK-based Prestwick Library Screening Results: S. aureus (increase in extracellular AK activity)), 1.1; in assay [3] (planktonic K. pneumoniae, 384-well, cutoff for positive-scoring molecules 3-fold increase, read-out: AK-based Prestwick Library Screening Results: K. pneumoniae (increase in extracellular AK activity)) it was 1.2; in assay [4] (planktonic A. baumannii, 384-well, cutoff for positive-scoring molecules 3-fold increase, read-out: AK-based Prestwick Library Screening Results: A. baumannii (increase in extracellular AK activity)) it was 1.3; in assay [5] (planktonic P. aeruginosa, 384-well, cutoff for positive-scoring molecules 3-fold increase, read-out: AK-based Prestwick Library Screening Results: P. aeruginosa (increase in extracellular AK activity)), 1.1; in assay [6] (planktonic E. cloacae, 384-well, cutoff for positive-scoring molecules 3-fold increase, read-out: AK-based Prestwick Library Screening Results: E. cloacae (increase in extracellular AK activity)), 1.5. For the same molecule, in assay [7] (planktonic E. coli, 384-well, cutoff for positive-scoring molecules 3-fold increase, read-out: AK-based Prestwick Library Screening Results: E. coli (increase in extracellular AK activity)), the fold induction at 50 µM was 1.3.

For the molecule `C=C1CC[C@H](O)C/C1=C/C=C1\CCC[C@]2(C)[C@@H]([C@H](C)/C=C/[C@H](C)C(C)C)CC[C@@H]12` [Calciferol], the fold induction at 50 µM in assay [1] (setting [9]) was determined as 0.9; in assay [2] (setting [10]) it was 0.5; in assay [3] (setting [11]), 0.7; in assay [4] (setting [12]) it was 0.7; in assay [5] (setting [13]) it was 0.7; in assay [6] (setting [14]) it was 0.7. Also, in assay [7] (setting [15]), the fold induction at 50 µM is 0.8.

On to `CC(C)(C)NC[C@H](O)COc1cccc2c1CCCC2=O.Cl` [(−)-Levobunolol hydrochloride], for which, in assay [1] (setting [16]), the “AK-based Prestwick Library Screening Results, E. faecium (fold increase in extracellular AK activity)” value came to 1.0. For the same molecule, in assay [2] (setting [16]), the “AK-based Prestwick Library Screening Results, S. aureus (fold increase in extracellular AK activity)” value is reported as 1.0. Moreover, the “AK-based Prestwick Library Screening Results, K. pneumoniae (fold increase in extracellular AK activity)” value in assay [3] (setting [16]) is given as 1.0. Moreover, the “AK-based Prestwick Library Screening Results, A. baumannii (fold increase in extracellular AK activity)” value in assay [4] (setting [16]) is recorded as 1.0. For the same molecule, the “AK-based Prestwick Library Screening Results, P. aeruginosa (fold increase in extracellular AK activity)” value in assay [5] (setting [16]) is reported as 1.2. Also, the “AK-based Prestwick Library Screening Results, E. cloacae (fold increase in extracellular AK activity)” value in assay [6] (setting [16]) was 1.9. Besides, the “AK-based Prestwick Library Screening Results, E. coli (fold increase in extracellular AK activity)” value in assay [7] (setting [16]) was determined as 1.3.

In the case of `CC(=O)OCC(=O)[C@@]1(OC(C)=O)[C@@H](C)C[C@H]2[C@@H]3C[C@H](F)C4=CC(=O)C=C[C@]4(C)[C@@]3(F)[C@@H](O)C[C@@]21C` [Diflorasone Diacetate], the fold induction at 50 µM was found to be 1.1 in assay [1] (planktonic, cutoff for positive 3-fold increase, read-out: AK-based Prestwick Library Screening Results, E. faecium (fold increase in extracellular AK activity)); 1.1 in assay [2] (planktonic, cutoff for positive 3-fold increase, read-out: AK-based Prestwick Library Screening Results, S. aureus (fold increase in extracellular AK activity)); 1 in assay [3] (planktonic, cutoff for positive 3-fold increase, read-out: AK-based Prestwick Library Screening Results, K. pneumoniae (fold increase in extracellular AK activity)); 0.9 in assay [4] (planktonic, cutoff for positive 3-fold increase, read-out: AK-based Prestwick Library Screening Results, A. baumannii (fold increase in extracellular AK activity)); 1 in assay [5] (planktonic, cutoff for positive 3-fold increase, read-out: AK-based Prestwick Library Screening Results, P. aeruginosa (fold increase in extracellular AK activity)); 1.4 in assay [6] (planktonic, cutoff for positive 3-fold increase, read-out: AK-based Prestwick Library Screening Results, E. cloacae (fold increase in extracellular AK activity)). For the same molecule, in assay [7] (planktonic, cutoff for positive 3-fold increase, read-out: AK-based Prestwick Library Screening Results, E. coli (fold increase in extracellular AK activity)), the fold induction at 50 µM was 1.1.

Take `CN(C)CCC(c1ccccc1)c1ccccn1` (centres unmarked) [Pheniramine maleate]: the fold induction at 50 µM stood at 1 in assay [1] (planktonic E. faecium, 384-well, […], read-out: AK-based Prestwick Library Screening Results: E. faecium (increase in extracellular AK activity)); 1 in assay [2] (planktonic S. aureus, 384-well, […], read-out: AK-based Prestwick Library Screening Results: S. aureus (increase in extracellular AK activity)); 1 in assay [3] (planktonic K. pneumoniae, 384-well, […], read-out: AK-based Prestwick Library Screening Results: K. pneumoniae (increase in extracellular AK activity)); 1 in assay [4] (planktonic A. baumannii, 384-well, […], read-out: AK-based Prestwick Library Screening Results: A. baumannii (increase in extracellular AK activity)); 1 in assay [5] (planktonic P. aeruginosa, 384-well, […], read-out: AK-based Prestwick Library Screening Results: P. aeruginosa (increase in extracellular AK activity)); 1.7 in assay [6] (planktonic E. cloacae, 384-well, […], read-out: AK-based Prestwick Library Screening Results: E. cloacae (increase in extracellular AK activity)). The fold induction at 50 µM in assay [7] (planktonic E. coli, 384-well, […], read-out: AK-based Prestwick Library Screening Results: E. coli (increase in extracellular AK activity)) is 1.4.

Turning to `CCCCNc1ccc(C(=O)OCCN(C)C)cc1` [Tetracaine hydrochloride], the fold induction at 50 µM in assay [1] (setting [9]) came out at 0.9; in assay [2] (setting [10]), 0.6; in assay [3] (setting [11]) it was 0.6; in assay [4] (setting [12]), 0.8; in assay [5] (setting [13]), 0.8; in assay [6] (setting [14]) it was 0.9. Moreover, in assay [7] (setting [15]), the fold induction at 50 µM turned out to be 0.9.
